According to ChEMBL document CHEMBL3272271, “Folate antagonists. 13. 2,4-Diamino-6-](alpha,alpha,alpha-trifluoro-m-tolyl)thio]quinazoline and related 2,4-diamino-6-[(phenyl- and naphthyl)thio]quinazolines, a unique class of antimetabolites with extraordinary antimalarial and antibacterial effects” (J Med Chem, 1978):
Converted amounts (≈) assume the structure as drawn. The source made the active and inactive calls. The calls are words filed in the database; no cut-off is given here.

Columns and labels:
Plasmodium berghei [1] = assay: Antimalarial activity against Plasmodium berghei infected in mouse assessed as increase in mean survival days of host at 20 mg/kg, sc administered 72 hrs after infection relative to control; type: functional; details: route subcutaneous
Enterococcus faecalis = assay: Antibacterial activity against Streptococcus faecalis MGH-2 by gradient plate test; type: functional
Plasmodium berghei [2] = assay: Antimalarial activity against Plasmodium berghei infected in mouse assessed as increase in mean survival days of host at 10 mg/kg, sc administered 72 hrs after infection relative to control; type: functional; details: route subcutaneous
Plasmodium gallinaceum [3] = assay: Antimalarial activity against trophozoite-induced Plasmodium gallinaceum infected in white leghorn chicken assessed as increase in mean survival days of host at 320 mg/kg, sc administered 72 hrs after infection relative to control; type: functional; details: route subcutaneous
Plasmodium gallinaceum [4] = assay: Antimalarial activity against sporozoite-induced Plasmodium gallinaceum infected in white leghorn chicken assessed as disease cure from parasite infection at 240 mg/kg, sc administered 72 hrs after infection; type: functional, organism-based; design: dose 240 mg/kg
Plasmodium berghei [5] = assay: Antimalarial activity against Plasmodium berghei infected in mouse assessed as disease cure from parasite infection at 640 mg/kg, sc administered 72 hrs after infection; type: functional, organism-based; design: dose 640 mg/kg
Staphylococcus aureus [6] = assay: Antibacterial activity against drug-resistant Staphylococcus aureus S18713 by gradient plate test; type: functional
Plasmodium gallinaceum [7] = assay: Antimalarial activity against trophozoite-induced Plasmodium gallinaceum infected in white leghorn chicken assessed as increase in mean survival days of host at 80 mg/kg, sc administered 72 hrs after infection relative to control; type: functional; details: route subcutaneous
Plasmodium berghei [8] = assay: Antimalarial activity against Plasmodium berghei infected in mouse assessed as increase in mean survival days of host at 40 mg/kg, sc administered 72 hrs after infection relative to control; type: functional; details: route subcutaneous
Plasmodium berghei [9] = assay: Antimalarial activity against Plasmodium berghei infected in mouse assessed as disease cure from parasite infection at 320 mg/kg, sc administered 72 hrs after infection; type: functional, organism-based; design: dose 320 mg/kg
Pseudomonas aeruginosa = assay: Antibacterial activity against Pseudomonas aeruginosa 28 by gradient plate test; type: functional
Plasmodium berghei [10] = assay: Antimalarial activity against trophozoite-induced Plasmodium berghei infected in mouse assessed as daily dose required to suppression of 90% parasite infection administered with diet for 6 days; type: functional
Plasmodium gallinaceum [11] = assay: Antimalarial activity against trophozoite-induced Plasmodium gallinaceum infected in white leghorn chicken assessed as disease cure from parasite infection at 320 mg/kg, sc administered 72 hrs after infection; type: functional, organism-based; design: dose 320 mg/kg
Plasmodium gallinaceum [12] = assay: Antimalarial activity against trophozoite-induced Plasmodium gallinaceum infected in white leghorn chicken assessed as increase in mean survival days of host at 20 mg/kg, sc administered 72 hrs after infection relative to control; type: functional; details: route subcutaneous
Plasmodium gallinaceum [13] = assay: Antimalarial activity against trophozoite-induced Plasmodium gallinaceum infected in white leghorn chicken assessed as increase in mean survival days of host at 40 mg/kg, sc administered 72 hrs after infection relative to control; type: functional; details: route subcutaneous
Staphylococcus aureus [14] = assay: Antibacterial activity against Staphylococcus aureus UC-96 by gradient plate test; type: functional
Gallus gallus = assay: Toxicity in sporozoite-induced Plasmodium gallinaceum infected white leghorn chicken assessed as mortality at 480 mg/kg, sc administered 72 hrs after infection measured up to 6 days; type: organism-based; design: dose 480 mg/kg, route subcutaneous; details: in vivo
Plasmodium berghei [15] = assay: Ratio of quinine hydrochloride SD90 to compound SD90 for trophozoite-induced Plasmodium berghei infected in mouse assessed as daily dose required to suppression of 90% parasite infection administered with diet for 6 days; type: functional
Plasmodium gallinaceum [16] = assay: Antimalarial activity against trophozoite-induced Plasmodium gallinaceum infected in white leghorn chicken assessed as increase in mean survival days of host at 160 mg/kg, sc administered 72 hrs after infection relative to control; type: functional; details: route subcutaneous
Plasmodium gallinaceum [17] = assay: Antimalarial activity against trophozoite-induced Plasmodium gallinaceum infected in white leghorn chicken assessed as increase in mean survival days of host at 10 mg/kg, sc administered 72 hrs after infection relative to control; type: functional; details: route subcutaneous
Shigella sonnei = assay: Antibacterial activity against Shigella sonnei C-10 by gradient plate test; type: functional
Plasmodium gallinaceum [18] = assay: Antimalarial activity against sporozoite-induced Plasmodium gallinaceum infected in white leghorn chicken assessed as disease cure from parasite infection at 120 mg/kg, sc administered 72 hrs after infection; type: functional, organism-based; design: dose 120 mg/kg
Plasmodium berghei [19] = assay: Antimalarial activity against Plasmodium berghei infected in mouse assessed as increase in mean survival days of host at 80 mg/kg, sc administered 72 hrs after infection relative to control; type: functional; details: route subcutaneous
Plasmodium berghei [20] = assay: Antimalarial activity against Plasmodium berghei infected in mouse assessed as disease cure from parasite infection at 160 mg/kg, sc administered 72 hrs after infection; type: functional, organism-based; design: dose 160 mg/kg
Plasmodium berghei [21] = assay: Antimalarial activity against Plasmodium berghei infected in mouse assessed as disease cure from parasite infection at 80 mg/kg, sc administered 72 hrs after infection; type: functional, organism-based; design: dose 80 mg/kg
Plasmodium gallinaceum [22] = assay: Antimalarial activity against sporozoite-induced Plasmodium gallinaceum infected in white leghorn chicken assessed as disease cure from parasite infection at 60 mg/kg, sc administered 72 hrs after infection; type: functional, organism-based; design: dose 60 mg/kg
Plasmodium gallinaceum [23] = assay: Antimalarial activity against sporozoite-induced Plasmodium gallinaceum infected in white leghorn chicken assessed as disease cure from parasite infection at 480 mg/kg, sc administered 72 hrs after infection; type: functional, organism-based; design: dose 480 mg/kg
Escherichia coli = assay: Antibacterial activity against Escherichia coli Vogel by gradient plate test; type: functional
Plasmodium gallinaceum [24] = assay: Antimalarial activity against trophozoite-induced Plasmodium gallinaceum infected in white leghorn chicken assessed as increase in mean survival days of host at 1.25 mg/kg, sc administered 72 hrs after infection relative to control; type: functional; details: route subcutaneous
Plasmodium berghei [25] = assay: Antimalarial activity against Plasmodium berghei infected in mouse assessed as increase in mean survival days of host at 1.25 mg/kg, sc administered 72 hrs after infection relative to control; type: functional; details: route subcutaneous
Plasmodium gallinaceum [26] = assay: Antimalarial activity against trophozoite-induced Plasmodium gallinaceum infected in white leghorn chicken assessed as increase in mean survival days of host at 0.63 mg/kg, sc administered 72 hrs after infection relative to control; type: functional; details: route subcutaneous
Plasmodium berghei [27] = assay: Antimalarial activity against Plasmodium berghei infected in mouse assessed as increase in mean survival days of host at 2.5 mg/kg, sc administered 72 hrs after infection relative to control; type: functional; details: route subcutaneous
Plasmodium berghei [28] = assay: Antimalarial activity against Plasmodium berghei infected in mouse assessed as increase in mean survival days of host at 5 mg/kg, sc administered 72 hrs after infection relative to control; type: functional; details: route subcutaneous
Plasmodium gallinaceum [29] = assay: Antimalarial activity against trophozoite-induced Plasmodium gallinaceum infected in white leghorn chicken assessed as increase in mean survival days of host at 5 mg/kg, sc administered 72 hrs after infection relative to control; type: functional; details: route subcutaneous
Plasmodium gallinaceum [30] = assay: Antimalarial activity against trophozoite-induced Plasmodium gallinaceum infected in white leghorn chicken assessed as increase in mean survival days of host at 2.5 mg/kg, sc administered 72 hrs after infection relative to control; type: functional; details: route subcutaneous
[31] = system: Mycobacterium tuberculosis; assay: Antibacterial activity against Mycobacterium tuberculosis H37Ra by gradient plate test; type: functional
Plasmodium gallinaceum [32] = assay: Antimalarial activity against trophozoite-induced Plasmodium gallinaceum infected in white leghorn chicken assessed as disease cure from parasite infection at 160 mg/kg, sc administered 72 hrs after infection; type: functional, organism-based; design: dose 160 mg/kg
Plasmodium berghei [33] = assay: Antimalarial activity against Plasmodium berghei infected in mouse assessed as disease cure from parasite infection at 40 mg/kg, sc administered 72 hrs after infection; type: functional, organism-based; design: dose 40 mg/kg
Mus musculus = assay: Toxicity in Plasmodium berghei infected mouse assessed as mortality at 640 mg/kg, sc administered 72 hrs after infection measured after 2 to 5 days; type: organism-based; design: dose 640 mg/kg, route subcutaneous; details: in vivo

Row | Structure (SMILES) | MST (Plasmodium berghei [1]) [days] | MIC (Enterococcus faecalis) [µg/mL] | MST (Plasmodium berghei [2]) [days] | MST (Plasmodium gallinaceum [3]) [days] | Activity (Plasmodium berghei [5]) | MIC (Staphylococcus aureus [6]) [µg/mL] | MST (Plasmodium gallinaceum [7]) [days] | MST (Plasmodium berghei [8]) [days] | Activity (Plasmodium berghei [9]) | MIC (Pseudomonas aeruginosa) [µg/mL] | SD90 (Plasmodium berghei [10]) [mg/kg/day] | Activity (Plasmodium gallinaceum [11]) | MST (Plasmodium gallinaceum [12]) [days] | MST (Plasmodium gallinaceum [13]) [days] | MIC (Staphylococcus aureus [14]) [µg/mL] | MST (Plasmodium gallinaceum [17]) [days] | MIC (Shigella sonnei) [µg/mL] | Activity (Plasmodium berghei [20]) | Activity (Plasmodium berghei [21]) | MIC (Escherichia coli) [µg/mL] | other results
1 | Cc1ccc(Sc2ccc3nc(N)nc(N)c3c2)cc1 | 3.9 | < 0.25 | 2.5 | 20 | Active | < 0.25 | 15.2 | 7.1 | Active | > 25 | 7.2 | Active | 7.6 | 10.4 | < 0.25 | 4.6 | 0.5 (≈ 1.77 µM) | Active | Active | < 0.25 | Activity (Plasmodium gallinaceum [4]): Active; Activity (Gallus gallus): Toxic; Ratio (Plasmodium berghei [15]): 10; MST (Plasmodium gallinaceum [16]): 22.2 days; Activity (Plasmodium gallinaceum [18]): Active; MST (Plasmodium berghei [19]): 9.7 days; Activity (Plasmodium gallinaceum [22]): Active; Activity (Plasmodium gallinaceum [23]): Active
2 | Nc1nc(N)c2cc(Sc3cccc4ccccc34)ccc2n1 | 10.7 | 10 (≈ 31.4 µM) | 7.9 |  | Active | 5 (≈ 15.7 µM) |  | 14.5 | Active | > 25 |  |  | 17.4 |  | 2.5 (≈ 7.85 µM) | 12.4 | 20 (≈ 62.8 µM) | Active | Active | 15 (≈ 47.1 µM) | MST (Plasmodium gallinaceum [24]): 7.2 days; MST (Plasmodium berghei [25]): 0.5 days; MST (Plasmodium gallinaceum [26]): 2.2 days; MST (Plasmodium berghei [27]): 1.1 days; MST (Plasmodium berghei [28]): 1.9 days; MST (Plasmodium gallinaceum [29]): 11.8 days; MST (Plasmodium gallinaceum [30]): 9 days; MST (Plasmodium berghei [19]): 18.4 days; MIC [31]: > 25 µg/mL
3 | Cc1ccccc1Sc1ccc2nc(N)nc(N)c2c1 | 10.5 | < 0.25 | 9.9 | 16 | Active | < 0.25 | 12 | 17 | Active | > 25 | 4.1 | Active | 7.6 | 11 | < 0.25 | 6.6 | 1 (≈ 3.54 µM) | Active | Active | < 0.25 | MST (Plasmodium gallinaceum [24]): 0 days; MST (Plasmodium berghei [25]): 1.1 days; MST (Plasmodium gallinaceum [26]): 0 days; MST (Plasmodium berghei [27]): 5.5 days; Activity (Plasmodium gallinaceum [32]): Active; MST (Plasmodium berghei [28]): 7.3 days; Activity (Plasmodium berghei [33]): Active; MST (Plasmodium gallinaceum [29]): 2.4 days; MST (Plasmodium gallinaceum [30]): 0 days; Ratio (Plasmodium berghei [15]): 18; MST (Plasmodium gallinaceum [16]): 17 days; Activity (Mus musculus): Toxic
